Test results published in patent publication US9474736B2, “Composition and method for treating dry eye syndrome” (RAMSCOR, INC., priority 2008, dated 2016).
Entries after “also recorded” stand apart in the source; their conditions may differ.

Assays:
[1] = Water evaporation from tocopherol/water emulsions; assay type: physicochemical; conditions: uncapped vials, ambient conditions, nine days
Protocol: FIG. 3 is a bar graph depicting the percent water evaporation from a tocopherol/water emulsions at nine days, shown as the percent water lost.
Mixtures of α-tocopheryl acetate (EA), d-α-tocopheryl polyethylene glycol 1000 succinate (TPGS) and water were prepared at the ratios shown in Table 1, weighed, and placed in 20 ml-sized glass vials. Vials #1 through #6 were each capped and sonicated for two minutes to yield stable emulsions. The vials #1 through #8 were then uncapped and left at ambient conditions for nine days. All the emulsions in vials #1 through #6 remained stable. All vials were weighed subsequently to measure weight (water) loss. […] Results are also depicted in FIG. 3.

[2] = system: CDE symptoms; experiment: Alleviation of CDE symptoms in contact lens-wearing individual, subjective comfort; assay type: in vivo, human
Text: FIG. 1 is a bar graph depicting the subjective comfort of an individual applying a drop of α-tocopheryl acetate into the eye(s) before bedtime preceding the days indicated. Subjective comfort is depicted on a scale of 1 to 10; with 1 being very irritated, and right eye feeling swollen; and 10 being very comfortable and tolerable compared to no drops.
A volunteer used one drop of α-tocopheryl acetate in one or more eyes at night, and reported the irritation or comfort on a subjective scale of 1-to-10, (maximum irritation “1”, maximum comfort “10”) as shown in FIG. 1. At days 1 to 5, the individual placed one drop in the right eye only.

[3] = set-up: species or system New Zealand White (NZW) rabbits; conditions: both, New Zealand White, rabbit, in vivo
Protocol: FIG. 2 is a graph showing the levels of α-tocopheryl acetate in the tears of rabbits over the course of seven days after the rabbits were administered one drop of α-tocopheryl acetate (3.6 mg, 3.9 mg, 5.4 mg, or 6.0 mg) on day one.
Four adult New Zealand White (NZW) rabbits (two females, two males) each weighing 4.5 kilo to 5.0 kilo were used in this example. One drop of α-tocopheryl acetate, each weighing 3.6 mg, 3.9 mg, 5.4 mg and 6.0 mg, was instilled onto one eye of each animal. Tear samples were collected daily by filter paper, weighed, eluted in 300 μl MeOH and analyzed for tocopheryl acetate (EA) by LC/MS/MS. Detected tear levels of EA over a seven-day period ranged from 15 μg/ml to 36 μg/ml with a mean of 26 μg/ml (26,000 ng/ml). Detectable levels of EA in the cul-de-sac of the rabbit eye may last beyond seven days.

[4] = system: dry eye syndrome; experiment: Topical application of α-tocopheryl acetate eyedrop in human volunteers with dry eye symptoms; conditions: for duration of relief from dry eye symptoms: one drop about 50 μl
[5] = Water or saline stably absorbed in α-tocopheryl acetate (evaporative weight loss); assay type: physicochemical; conditions: sealed vials, 30° C., after 12 hrs
Protocol: In an alternative study, the concentrations of water or saline that would remain stably absorbed in α-tocopheryl acetate (EA) were examined. Equal volumes of water or 0.9% saline were placed with EA in sealed vials at 30° C. Samples of the resultant EA plus absorbed aqueous were removed at several time points and the water contents were assayed by evaporative weight loss to constant weight over time at 30° C. open to the air. After 12 hrs exposure of EA to water or the saline solution in sealed vials at 30° C. the maximum amounts of aqueous solutions absorbed in EA were reached. The resultant values were: 0.3% water absorbed and 0.6% saline solution absorbed.

## CC(=O)Oc1c(C)c(C)c2c(c1C)CCC(C)(CCC[C@H](C)CCC[C@H](C)CCCC(C)C)O2 (stereo partly drawn) [vial 8, α-tocopheryl acetate]
[1]
  g wt loss: lost no weight

## CC(=O)Oc1c(C)c(C)c2c(c1C)CCC(C)(CCC[C@H](C)CCC[C@H](C)CCCC(C)C)O2 (stereo partly drawn) [α-tocopheryl acetate]
[2]; days 30-38, eyedrops not applied every single night
  ability to wear contact lenses: able to wear contact lenses (days 30-38) in relative comfort
[2]; volunteer, one drop at night
  duration of comfort before re-applying eyedrops: up to five days
[3]
  detected tear levels of EA, mean: 26,000 ng/ml
[4]; one drop about 50 μl in eye, two human volunteers
  irritation or blurred vision reported: No irritation or blurred vision
[4]; no repeat applications, both volunteers
  duration of relief from dry eye symptoms: several days; also recorded: at least one day
[4]; one subject
  duration of relief from dry eye symptoms: at least seven days
[5]; equal volumes 0.9% saline and EA
  maximum saline solution absorbed in EA: 0.6%
[5]; equal volumes water and EA
  maximum water absorbed in EA: 0.3%
